# In ChEMBL document CHEMBL5724914, “Linking interpersonal differences in gut microbiota composition and drug biotransformation activity” (2024):
# Assays:
# [1] = (§1) The drug is tested on Z-018 corresponding to pig gut metagenome with ENA study accession number: PRJEB37062 and ENA sample accession number: ERS12561817 for biotransformation under anaerobic condition. The drug concentrations were measured over 9 timepoints collected between 0 and 24 hours of incubation by liquid-chromatography-coupled mass spectrometry (LC–MS); conditions: 2 µM
# [2] = human gut metagenome, 24 h, 2 µM
# [3] = as §1, with “Z-029” for “Z-018”, “rat” for “pig”, “ERS12561828” for “ERS12561817”; conditions: 2 µM
# [4] = human gut metagenome, 24 h, 2 µM; remark: listed apart in the source
# [5] = as §1, with “Z-030” for “Z-018”, “mouse” for “pig”, “ERS12561829” for “ERS12561817”; conditions: 2 µM
# [6] = as §1, with “WLS-090” for “Z-018”, “human” for “pig”, “ERS12561753” for “ERS12561817”; conditions: 2 µM
# [7] = as §1, with “Z-014” for “Z-018”, “rat” for “pig”, “ERS12561814” for “ERS12561817”; conditions: 2 µM
# [8] = human gut metagenome, 24 h, 2 µM; remark: listed apart in the source
# [9] = human gut metagenome, 24 h, 2 µM; remark: listed apart in the source
# Further: call rule not given here.
SMILES,Bacterial Biotransformation [1],Bacterial Biotransformation [2],Bacterial Biotransformation [3],Bacterial Biotransformation [4],Bacterial Biotransformation [5],Bacterial Biotransformation [6],Bacterial Biotransformation [7],Bacterial Biotransformation [8],Bacterial Biotransformation [9]
CN1CCC(=C2c3ccccc3CC(=O)c3sccc32)CC1.O=C(O)/C=C/C(=O)O [KETOTIFEN FUMARATE],Compound NOT metabolized,Compound metabolized,Compound NOT metabolized,Compound NOT metabolized,Compound NOT metabolized,Compound metabolized,Compound NOT metabolized,Compound NOT metabolized,Compound NOT metabolized
CN(C)CCC=C1c2ccccc2COc2ccccc21 [DOXEPIN],Compound NOT metabolized,Compound metabolized,Compound NOT metabolized,Compound NOT metabolized,Compound NOT metabolized,Compound metabolized,Compound NOT metabolized,Compound metabolized,Compound NOT metabolized
CC(C)c1c(CN(C)C(C)Cc2ccccc2)n(C)n(-c2ccccc2)c1=O (centres undefined) [FAMPROFAZONE],Compound NOT metabolized,Compound metabolized,Compound NOT metabolized,Compound metabolized,Compound NOT metabolized,Compound metabolized,Compound metabolized,Compound metabolized,Compound metabolized
O=C(O)c1cc(/N=N/c2ccc(S(=O)(=O)Nc3ccccn3)cc2)ccc1O [SULFASALAZINE],Compound metabolized,Compound metabolized,Compound metabolized,Compound metabolized,Compound metabolized,Compound metabolized,Compound metabolized,Compound metabolized,Compound metabolized
COc1ccnc(C[S+]([O-])c2nc3ccc(OC(F)F)cc3[nH]2)c1OC (centres undefined) [PANTOPRAZOLE],Compound metabolized,Compound metabolized,Compound metabolized,Compound metabolized,Compound metabolized,Compound metabolized,Compound NOT metabolized,Compound metabolized,Compound metabolized
N#Cc1ccc2c(c1)N(CCCN1CCC(O)CC1)c1ccccc1S2 [PERICIAZINE],–,Compound metabolized,–,Compound NOT metabolized,–,Compound metabolized,–,Compound NOT metabolized,Compound NOT metabolized
CC[C@H](C)C(=O)O[C@H]1CCC=C2C=C[C@H](C)[C@H](CC[C@@H]3C[C@@H](O)CC(=O)O3)[C@H]21 [MEVASTATIN],Compound metabolized,Compound metabolized,Compound NOT metabolized,Compound NOT metabolized,Compound metabolized,Compound metabolized,Compound NOT metabolized,Compound metabolized,Compound NOT metabolized
C[C@]12C=CC(=O)C=C1CC[C@@H]1[C@@H]2C(=O)C[C@@]2(C)[C@H]1CC[C@]2(O)C(=O)CO [PREDNISONE],Compound metabolized,Compound metabolized,Compound metabolized,Compound metabolized,Compound NOT metabolized,Compound metabolized,Compound NOT metabolized,Compound metabolized,–
N[C@@H](Cc1ccc(N(CCCl)CCCl)cc1)C(=O)O,–,Compound NOT metabolized,–,Compound NOT metabolized,–,Compound metabolized,–,Compound NOT metabolized,–
N#Cc1ccc2[nH]cc(CCCCN3CCN(c4ccc5oc(C(N)=O)cc5c4)CC3)c2c1 [VILAZODONE],Compound NOT metabolized,Compound metabolized,Compound NOT metabolized,Compound metabolized,Compound metabolized,Compound metabolized,Compound NOT metabolized,Compound metabolized,Compound metabolized
CC1=C(CC(=O)O)c2cc(F)ccc2/C1=C\c1ccc([S+](C)[O-])cc1 (centres undefined),Compound metabolized,Compound metabolized,Compound metabolized,Compound metabolized,Compound metabolized,Compound metabolized,Compound NOT metabolized,Compound metabolized,Compound metabolized
COCCCC/C(=N\OCCN)c1ccc(C(F)(F)F)cc1.O=C(O)/C=C\C(=O)O [FLUVOXAMINE MALEATE],–,Compound metabolized,–,Compound NOT metabolized,–,Compound metabolized,–,Compound NOT metabolized,Compound NOT metabolized
CCOC(=O)C1=C(C)NC(C)=C(C(=O)OC)C1c1cccc([N+](=O)[O-])c1 (centres undefined) [NITRENDIPINE],–,Compound metabolized,–,Compound metabolized,–,Compound metabolized,–,Compound metabolized,Compound metabolized
CN1[C@@H]2CC[C@H]1C[C@@H](OC(=O)c1c[nH]c3ccccc13)C2 [TROPISETRON],Compound NOT metabolized,Compound NOT metabolized,Compound NOT metabolized,Compound NOT metabolized,Compound NOT metabolized,Compound metabolized,Compound NOT metabolized,Compound NOT metabolized,Compound NOT metabolized
C[C@]12CCC(=O)C=C1[C@@H]1C[C@@H]1[C@H]1[C@@H]3[C@@H]4C[C@@H]4[C@@]4(CCC(=O)O4)[C@@]3(C)CC[C@@H]12 [DROSPIRENONE],Compound metabolized,Compound metabolized,Compound NOT metabolized,Compound NOT metabolized,Compound NOT metabolized,Compound NOT metabolized,Compound NOT metabolized,Compound metabolized,Compound metabolized
CC#CCn1c(N2CCC[C@@H](N)C2)nc2c1c(=O)n(Cc1nc(C)c3ccccc3n1)c(=O)n2C [LINAGLIPTIN],–,Compound NOT metabolized,–,Compound NOT metabolized,–,Compound NOT metabolized,–,Compound NOT metabolized,Compound NOT metabolized
CN(C)CCc1c[nH]c2ccc(CS(=O)(=O)N3CCCC3)cc12 [ALMOTRIPTAN],–,Compound metabolized,–,Compound NOT metabolized,–,Compound metabolized,–,Compound NOT metabolized,Compound NOT metabolized
N=C(N)NC(=O)Cc1c(Cl)cccc1Cl [GUANFACINE],–,Compound NOT metabolized,Compound NOT metabolized,Compound NOT metabolized,Compound NOT metabolized,Compound NOT metabolized,Compound NOT metabolized,Compound NOT metabolized,Compound NOT metabolized
CNCC[C@H](Oc1cccc2ccccc12)c1cccs1 [DULOXETINE],–,Compound metabolized,–,Compound metabolized,–,Compound metabolized,–,Compound NOT metabolized,Compound metabolized
CNNCc1ccc(C(=O)NC(C)C)cc1 [PROCARBAZINE],–,Compound metabolized,Compound NOT metabolized,Compound NOT metabolized,–,Compound NOT metabolized,Compound NOT metabolized,Compound NOT metabolized,Compound NOT metabolized
O=C([O-])C[C@H](O)C[C@H](O)/C=C/c1c(C2CC2)nc2ccccc2c1-c1ccc(F)cc1.O=C([O-])C[C@H](O)C[C@H](O)/C=C/c1c(C2CC2)nc2ccccc2c1-c1ccc(F)cc1.[Ca+2] [PITAVASTATIN CALCIUM],–,Compound NOT metabolized,–,Compound NOT metabolized,–,Compound metabolized,–,Compound NOT metabolized,Compound metabolized
O=C1N=C([O-])NC1(c1ccccc1)c1ccccc1.[Na+] [PHENYTOIN SODIUM],Compound NOT metabolized,Compound metabolized,–,Compound NOT metabolized,–,Compound metabolized,Compound NOT metabolized,Compound metabolized,Compound NOT metabolized
